Source: ChEMBL document CHEMBL1133982, “Selective heterocyclic amidine inhibitors of human inducible nitric oxide synthase” (Bioorg Med Chem Lett, 2001)

Legend:
Nitric oxide synthase 1 [1] = target: T1, Nitric oxide synthase 1 (Homo sapiens, UniProt P29475); experiment: Inhibitory activity against Neuronal nitric oxide synthase at 100 uM concentration was determined
[2] = target: T2, Nitric oxide synthase, inducible (Homo sapiens, UniProt P35228); experiment: Inhibitory activity against Inducible nitric oxide synthase at 100 uM concentration was determined
T2 sequence (P35228 whole entry): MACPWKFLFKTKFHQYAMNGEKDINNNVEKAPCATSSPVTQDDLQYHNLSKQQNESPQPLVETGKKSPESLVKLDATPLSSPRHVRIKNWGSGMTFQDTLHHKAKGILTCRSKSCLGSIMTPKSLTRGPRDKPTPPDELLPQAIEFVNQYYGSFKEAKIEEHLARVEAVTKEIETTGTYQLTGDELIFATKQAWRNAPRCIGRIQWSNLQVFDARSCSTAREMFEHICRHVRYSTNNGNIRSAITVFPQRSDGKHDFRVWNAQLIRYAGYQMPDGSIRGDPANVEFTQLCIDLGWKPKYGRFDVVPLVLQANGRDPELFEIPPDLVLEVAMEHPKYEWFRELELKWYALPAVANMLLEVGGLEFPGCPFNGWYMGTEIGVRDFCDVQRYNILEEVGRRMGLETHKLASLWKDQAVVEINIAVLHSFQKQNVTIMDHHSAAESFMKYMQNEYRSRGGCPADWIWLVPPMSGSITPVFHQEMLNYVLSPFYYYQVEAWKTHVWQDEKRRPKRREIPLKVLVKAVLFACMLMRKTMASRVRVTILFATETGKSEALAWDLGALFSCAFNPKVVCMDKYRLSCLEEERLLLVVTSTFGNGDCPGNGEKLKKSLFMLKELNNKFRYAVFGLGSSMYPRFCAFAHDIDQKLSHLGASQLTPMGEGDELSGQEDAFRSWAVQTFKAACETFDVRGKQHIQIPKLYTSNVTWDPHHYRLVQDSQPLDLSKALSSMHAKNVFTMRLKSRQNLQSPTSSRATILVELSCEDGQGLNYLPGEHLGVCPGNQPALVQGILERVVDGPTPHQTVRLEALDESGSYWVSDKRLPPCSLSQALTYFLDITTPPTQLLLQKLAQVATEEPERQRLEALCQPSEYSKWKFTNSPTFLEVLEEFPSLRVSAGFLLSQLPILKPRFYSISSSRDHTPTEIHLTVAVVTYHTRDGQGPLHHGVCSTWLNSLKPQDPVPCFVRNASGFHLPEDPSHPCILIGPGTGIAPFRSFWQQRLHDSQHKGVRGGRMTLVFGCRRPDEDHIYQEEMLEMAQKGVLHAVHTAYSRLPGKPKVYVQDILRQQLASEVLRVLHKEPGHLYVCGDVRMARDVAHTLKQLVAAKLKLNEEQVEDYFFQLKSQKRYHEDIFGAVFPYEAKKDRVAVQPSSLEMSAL

[3] = target: T3, Nitric oxide synthase 3 (Homo sapiens) (UniProt P29474); experiment: Inhibitory activity against Endothelial nitric oxide synthase at 100 uM concentration was determined
T3 sequence (whole entry): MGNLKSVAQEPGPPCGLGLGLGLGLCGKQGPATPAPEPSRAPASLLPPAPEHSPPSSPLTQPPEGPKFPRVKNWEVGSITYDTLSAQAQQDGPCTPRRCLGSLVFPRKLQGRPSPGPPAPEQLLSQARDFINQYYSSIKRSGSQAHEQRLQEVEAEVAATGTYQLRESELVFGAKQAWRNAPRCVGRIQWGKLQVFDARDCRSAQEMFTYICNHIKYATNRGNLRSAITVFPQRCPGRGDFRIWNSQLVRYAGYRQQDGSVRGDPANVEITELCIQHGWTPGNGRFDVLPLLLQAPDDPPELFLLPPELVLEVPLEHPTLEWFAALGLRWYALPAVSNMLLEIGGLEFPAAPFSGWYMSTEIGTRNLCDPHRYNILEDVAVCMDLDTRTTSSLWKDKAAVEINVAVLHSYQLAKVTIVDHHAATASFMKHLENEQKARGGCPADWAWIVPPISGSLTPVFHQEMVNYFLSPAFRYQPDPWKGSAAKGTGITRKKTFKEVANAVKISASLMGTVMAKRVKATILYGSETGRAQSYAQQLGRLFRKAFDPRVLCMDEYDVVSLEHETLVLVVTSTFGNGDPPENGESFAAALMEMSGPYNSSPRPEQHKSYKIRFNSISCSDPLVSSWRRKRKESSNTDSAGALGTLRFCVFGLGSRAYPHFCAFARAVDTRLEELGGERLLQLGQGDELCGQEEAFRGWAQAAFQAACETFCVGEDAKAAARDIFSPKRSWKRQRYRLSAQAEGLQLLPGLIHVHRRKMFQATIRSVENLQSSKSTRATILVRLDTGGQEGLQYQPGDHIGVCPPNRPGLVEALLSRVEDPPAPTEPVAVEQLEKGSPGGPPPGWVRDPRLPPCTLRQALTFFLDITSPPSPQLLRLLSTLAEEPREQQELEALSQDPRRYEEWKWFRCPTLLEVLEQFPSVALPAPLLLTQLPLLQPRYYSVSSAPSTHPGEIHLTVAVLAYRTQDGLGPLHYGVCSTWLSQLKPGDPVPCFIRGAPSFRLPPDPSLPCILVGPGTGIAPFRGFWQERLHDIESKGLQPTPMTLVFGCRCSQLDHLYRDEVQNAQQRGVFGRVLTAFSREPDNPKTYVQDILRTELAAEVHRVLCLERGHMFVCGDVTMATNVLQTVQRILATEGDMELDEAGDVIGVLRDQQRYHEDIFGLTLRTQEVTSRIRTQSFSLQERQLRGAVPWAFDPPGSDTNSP

[4] = target: T2, Nitric oxide synthase, inducible; experiment: Inhibition of inducible nitric oxide synthase
Nitric oxide synthase 3 = target: T4, Nitric oxide synthase 3 (Homo sapiens, UniProt P29474); experiment: Inhibition of endothelial nitric oxide synthase
T4 sequence (P29474 whole entry): T3 sequence (whole entry)

Nitric oxide synthase 1 [5] = target: T1, Nitric oxide synthase 1; experiment: Inhibition of Neuronal nitric oxide synthase

T1 sequence (P29475 whole entry): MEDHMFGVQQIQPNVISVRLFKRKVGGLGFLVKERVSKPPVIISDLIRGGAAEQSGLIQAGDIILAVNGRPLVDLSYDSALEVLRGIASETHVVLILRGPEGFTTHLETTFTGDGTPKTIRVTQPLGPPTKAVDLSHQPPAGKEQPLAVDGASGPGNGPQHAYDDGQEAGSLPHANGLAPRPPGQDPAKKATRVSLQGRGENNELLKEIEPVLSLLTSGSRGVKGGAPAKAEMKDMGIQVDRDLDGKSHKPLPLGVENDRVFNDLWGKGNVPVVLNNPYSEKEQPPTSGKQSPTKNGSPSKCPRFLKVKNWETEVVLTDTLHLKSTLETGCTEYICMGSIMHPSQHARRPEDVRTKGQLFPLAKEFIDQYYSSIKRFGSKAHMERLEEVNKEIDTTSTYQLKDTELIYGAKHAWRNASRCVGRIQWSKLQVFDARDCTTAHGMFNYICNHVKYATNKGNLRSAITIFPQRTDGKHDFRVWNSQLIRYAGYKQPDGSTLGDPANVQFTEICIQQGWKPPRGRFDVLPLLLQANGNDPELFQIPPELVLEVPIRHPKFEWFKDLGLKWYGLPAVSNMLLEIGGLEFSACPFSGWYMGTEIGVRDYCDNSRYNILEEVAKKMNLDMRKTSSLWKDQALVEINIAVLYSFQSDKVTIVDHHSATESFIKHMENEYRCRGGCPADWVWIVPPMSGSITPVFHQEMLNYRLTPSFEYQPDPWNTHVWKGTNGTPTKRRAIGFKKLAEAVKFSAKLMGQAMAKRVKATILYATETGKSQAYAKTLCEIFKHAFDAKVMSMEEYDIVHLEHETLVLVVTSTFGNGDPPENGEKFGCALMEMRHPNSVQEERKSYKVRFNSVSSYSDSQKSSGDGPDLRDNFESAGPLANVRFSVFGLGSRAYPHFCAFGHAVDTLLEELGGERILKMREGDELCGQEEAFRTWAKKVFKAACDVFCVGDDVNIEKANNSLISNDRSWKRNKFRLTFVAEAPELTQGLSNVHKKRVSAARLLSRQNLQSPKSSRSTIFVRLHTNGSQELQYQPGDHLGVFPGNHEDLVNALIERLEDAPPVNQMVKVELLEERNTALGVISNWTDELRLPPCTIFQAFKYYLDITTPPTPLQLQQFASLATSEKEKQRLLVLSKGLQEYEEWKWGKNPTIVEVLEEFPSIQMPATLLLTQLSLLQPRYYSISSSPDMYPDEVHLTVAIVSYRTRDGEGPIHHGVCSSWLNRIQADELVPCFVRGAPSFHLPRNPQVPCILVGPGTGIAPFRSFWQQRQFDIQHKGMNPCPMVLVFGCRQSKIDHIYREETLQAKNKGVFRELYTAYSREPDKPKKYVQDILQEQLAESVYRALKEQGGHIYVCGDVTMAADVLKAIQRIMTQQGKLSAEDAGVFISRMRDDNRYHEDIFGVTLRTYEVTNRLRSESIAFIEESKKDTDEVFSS

Row | SMILES | inhibition (Nitric oxide synthase 1 [1]) [%] | inhibition [2] [%] | inhibition [3] [%] | IC50 [4] [µM] | IC50 (Nitric oxide synthase 3) [µM] | IC50 (Nitric oxide synthase 1 [5]) [µM]
1 | CCOC(=O)[C@@H]1CCSCC/C(N)=N\1 | 13.9 | 55.7 | 2.4 | – | – | –
2 | CCCCC1CCCCC(N)=N1 (configuration not stated) | – | – | – | 0.517 | – | –
3 | NCCC1CCCCC(N)=N1 (configuration not stated) | – | – | – | 0.701 | 39.1 | 0.932
4 | CCOC(=O)[C@@H]1CSCCC(N)=N1 | 84.8 | 70.9 | 8.66 | – | – | –
5 | NC1=NCCOCC1 | – | – | – | 14 | 72.7 | 17.7
6 | CCCCC1COCCC(N)=N1 (configuration not stated) | – | – | – | 2.43 | 1360 | 25.9
7 | CN1CCN=C(N)CC1 | – | 32.1 | 6.42 | – | – | –
8 | N/C1=N/CCCSCC1 | – | – | – | 13.1 | 186 | 21
9 | N=C1CCOCC(CC[N+](=O)[O-])N1 (configuration not stated) | – | – | – | 0.979 | 49.3 | 6.24
10 | NCCC1COCCC(N)=N1 (configuration not stated) | – | – | – | 6.66 | 248 | 8.39
11 | C/C=C/CC1CCCCC(N)=N1 (configuration not stated) | – | – | – | 0.89 | 206 | 3.39
12 | NC1=NC(CC[N+](=O)[O-])CCCC1 (configuration not stated) | – | – | – | 0.152 | 2.77 | 0.339
13 | C/C=C/CC1COCCC(N)=N1 (configuration not stated) | – | – | – | 9.26 | 709 | 108
14 | CCOC(=O)[C@H]1CSCCC(N)=N1 | 82.6 | 70.9 | 13.9 | – | – | –
15 | NC1=NCCSCC1 | – | – | – | 2.7 | 43.6 | 6.8
